Experimental data taken from patent publication US20080187556A1 (priority 2005, published 2008).
In brackets after ≈: the same amount, converted by molar mass. Ends that are not written are not given here.

Tests used:
S180 sarcoma = tested on: S180 sarcoma; parameters: species or system mice; settings: mouse, in vivo
mononuclear phagocytes = tested on: mononuclear phagocytes; parameters: species or system mice; settings: mouse, in vivo
H22 hepatic carcinoma = tested on: H22 hepatic carcinoma; parameters: species or system mice; settings: mouse, in vivo
CaEs-17 = test: cells; format: cell-based; settings: Homo sapiens, CaEs17
Tca83 = test: cells; format: cell-based; settings: Homo sapiens
BGC-823 = test: cells; format: cell-based; settings: Homo sapiens
Bel7402 = test: cells; format: cell-based; settings: Homo sapiens, Bel-7402
HELF = test: cells; format: cell-based; settings: Homo sapiens
Ketr-3 = test: cells; format: cell-based; settings: Homo sapiens, KETR3
Hep-2 = test: cells; format: cell-based; settings: Homo sapiens
PC-3M = test: cells; format: cell-based; settings: Homo sapiens
HeLa = test: cells; format: cell-based; settings: Homo sapiens
A431 = test: cells; format: cell-based; settings: Homo sapiens, A-431
EJ = test: cells; format: cell-based; settings: Homo sapiens
HCT-8 = test: cells; format: cell-based; settings: Homo sapiens
MCF-7 = test: cells; format: cell-based; settings: Homo sapiens, MCF7
KB = test: cells; format: cell-based; settings: Homo sapiens
A549 = test: cells; format: cell-based; settings: Homo sapiens
[1] = parameters: species or system mice; settings: mouse, in vivo

Compound: O=P1(N(CCCl)CCCl)NCCCO1 (stereo not shown) [Cyclophosphamide]
- pathological picture of tumor tissue (S180 sarcoma): necrotic and degenerated tissue scattered
- Index of phagocytosis, K (mononuclear phagocytes): 0.0744 ± 0.0081
- Phagocytosis activity, α (mononuclear phagocytes): 4.4614 ± 0.2413
- pathological picture of tumor tissue (H22 hepatic carcinoma): necrotic and degenerated tissue scattered

Compound: O=c1[nH]cc(F)c(=O)[nH]1 [Fluorouracil]
- IC50 (CaEs-17): 0.757 ± 0.0254 µg/mL (≈ 5.82 µM)
- IC50 (Tca83): 0.924 ± 0.0435 µg/mL (≈ 7.1 µM)
- IC50 (BGC-823): 0.632 ± 0.0572 µg/mL (≈ 4.86 µM)
- IC50 (Bel7402): 0.718 ± 0.0067 µg/mL (≈ 5.52 µM)
- IC50 (HELF): 0.087 ± 0.004 µg/mL (≈ 0.669 µM)
- IC50 (Ketr-3): 0.634 ± 0.0147 µg/mL (≈ 4.87 µM)
- IC50 (Hep-2): 4.88 ± 2.22 µg/mL (≈ 37.5 µM)
- IC50 (PC-3M): 1.49 ± 1.07 µg/mL (≈ 11.4 µM)
- IC50 (HeLa): 0.613 ± 0.05 µg/mL (≈ 4.71 µM)
- IC50 (A431): 0.174 ± 0.0447 µg/mL (≈ 1.34 µM)
- IC50 (EJ): 3.69 ± 0.909 µg/mL (≈ 28.4 µM)
- IC50 (HCT-8): 0.605 ± 0.0278 µg/mL (≈ 4.65 µM)
- IC50 (MCF-7): 0.646 ± 0.0437 µg/mL (≈ 4.97 µM)
- IC50 (KB): 0.66 ± 0.0085 µg/mL (≈ 5.07 µM)
- IC50 (A549): 0.425 ± 0.034 µg/mL (≈ 3.27 µM)

Compound: RKDVY [thymopentin]
- pathological picture of tumor tissue (S180 sarcoma): a few tumor cells were necrotic and degenerative
- pathological picture of tumor tissue (H22 hepatic carcinoma): a little of tumor cell necrosis and degeneration

Compound: Thymosin Alpha-1 (SDAAVDTSSEITTKDLKEKKEVVEEAEN; not fully specified (N-terminus); ends and bridges not checked; UniProt P06454 2-29, looked up) [biological drug, registration No. H20050339]
- Elongation index [1]: 37.5%
- Swimming time [1]: 18.9 ± 2.98 min
- Index of phagocytosis, K (mononuclear phagocytes): 0.3473 ± 0.0130
- Phagocytosis activity, α (mononuclear phagocytes): 7.9583 ± 0.5069
